The target in one series is T1, hPXR (Homo sapiens, UniProt O75469).
T1 construct: GST-LBD
T1 sequence (O75469 146-433 limits assumed): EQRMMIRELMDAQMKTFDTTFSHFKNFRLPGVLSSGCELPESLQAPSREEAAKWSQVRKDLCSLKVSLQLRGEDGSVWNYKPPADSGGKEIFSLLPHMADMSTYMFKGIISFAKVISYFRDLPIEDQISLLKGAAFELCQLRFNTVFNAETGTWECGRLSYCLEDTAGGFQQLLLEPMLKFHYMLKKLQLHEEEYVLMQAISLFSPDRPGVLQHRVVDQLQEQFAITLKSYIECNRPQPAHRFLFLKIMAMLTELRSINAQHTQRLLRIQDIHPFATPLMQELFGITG
The series can be described thus: AlphaScreen coactivator recruitment assay, PXR. The class given is biochemical. As to conditions: 10 μM compound concentration. For orientation: In Alpha technology, singlet oxygen from a donor bead excites a nearby acceptor bead.

The next series has as its system PPARs. Nature of the series: AlphaScreen nuclear receptor panel, PPARs. The class given is biochemical, human. The text has this:
Ligand binding activity of GA (1) was explored via AlphaScreen technology over a panel of NRs that, along with hPXR (Figure 1A), included major human endocrine and metabolic receptors, such as the retinoid X receptor (RXR), constitutive androstane receptor (CAR), farnesoid X receptor (FXR), vitamin D receptor (VDR), liver X receptor (LXR) forms α and β, and the PPAR isoforms α, δ, and γ (see Figure S1). GA (1) was compared to its analogue δ-tocotrienol (5), the vitamers 3 and 4, their short-chain metabolites (SCMs) α-CEHC (10) and γ-CEHC (11), and the LCMs 2 and 8 (Chart 1). The test was performed in the presence of reference standard agonists for the different NRs.
The activity of nuclear receptors was determined using AlphaScreen technology, a recruitment coactivator assay previously described.[56]
(A) The test was carried out at 10 μM compound final concentration. Ligand binding to nuclear receptors was expressed as luminescence units. […] Vehicle was assessed to obtain a measure of background signal (basal evaluation). […] In presence of the ligand, the nuclear receptor LBD undergoes conformational changes, binds to the coactivator and the chemical energy is transferred from donor to acceptor beads in order to produce a signal, i.e. luminescence; in this case the compounds behaves as agonist, changing the conformation of the receptor to recruit the coactivator. […]

The next series has as its system PXR. The series can be described thus: PXR, CYP3A4 (CYP3A11) expression in mouse liver and intestine after single bolus. The class given is in vivo. As to conditions: 24 h post-treatment.
A further series deals with HT29. Nature of the series: PXR and CYP3A4 protein expression in HT29 cells. The class given is cell-based. As to conditions: HT29, 24 h, 1 to 25 μM. How it is done:
HepG2 (human hepatoma cell line; ATCC HB-8065, Manassas, VA) and HepaRG (HPRGC10, Thermo Fisher Scientific) cells were maintained in culture as previously described.[47] Experiments were performed between passages 2 and 10. Cell viability, clonogenic activity, and apoptotic cell death were assessed as previously described (see Figure S2).[58],[59] HT29 human colorectal adenocarcinoma cells (ATCC HTB-38) and its mucous-secreting HT29-MTX subclone (Sigma-Aldrich) were used as intestinal cell models. HT29 cells were cultured in RPMI (Invitrogen; Life Technologies) containing 10% FBS (v/v) and 1% (v/v) L-glutamine. HT29-MTX cells (from Sigma-Aldrich) were cultured in DMEM supplemented with 2 mM glutamine, 1% nonessential amino acids, and 10% FBS. […]
Cells were harvested and lysed in ice-cold cell lysis buffer (Cell Signaling Technology) and 20 μL/mL protease inhibitor cocktail (Roche). […] After incubation in ice for 1 h and centrifugation (12 000 rpm for 20 min at 4 °C), the supernatant was recovered, and total proteins were quantified by the BCA assay kit (Pierce, Thermo Fisher Scientific). […] The band intensity was analyzed using Gel Pro analyzer Software. […]
PXR and CYP3A4 protein was assessed by immunoblot (20 µg total protein loading) in HT29 cells (from ATCC) were cultured in RPMI (Invitrogen; Life Technologies) containing 10% FBS ( v/v) and 1% ( v/v) L-glutamine. […]

Series [1] concerns C57BL/6 wild-type male mice. The series can be described thus: Acute toxicity in mice after single oral bolus. Conditions: 100 mg single bolus by oral gavage, 24 h after the treatment.

Consider `C/C(=C\CC/C(C)=C/CC[C@]1(C)CCc2cc(O)cc(C)c2O1)CC/C=C(\C)C(=O)O` [GA (1), (2E,6E,10E)-13-[(2R)-6-hydroxy-2,8-dimethyl-chroman-2-yl]-2,6,10-trimethyltrideca-2,6,10-trienoic acid], for which the “PXR agonist activity (AlphaScreen, single concentration)” value on hPXR is “significant PXR agonist activity”. In the series with PPARs, the “Response on PPARs” value is listed as “No response”. Further, in the series on PXR (5 to 25 mg single bolus), the “CYP3A4 (CYP3A11 in mice) protein expression in liver and intestine” value is on record as “increased”. Besides, in the series with PXR (mice, 5 to 25 mg single bolus), the “PXR mRNA in intestine” value is recorded as “increased”; the “PXR protein and mRNA in liver tissue” value is “dose-dependent stimulation effect”. The “PXR protein expression in intestine” value in the series with PXR (mice, single bolus) was “not sufficient to significantly increase PXR protein expression”. For the same compound, in the series on HT29, the “PXR and CYP3A4 protein expression” value is given as “increase”. The Mortality in series [1] is recorded as 100%.

The values above are taken from PMC7901650, “Garcinoic Acid Is a Natural and Selective Agonist of Pregnane X Receptor” (Journal of Medicinal Chemistry, 2020).
